Results as given in patent publication US12501899B2, “Mite infestation treatment” (priority 2019, dated 2025).
Counter-ions that a name gives are not always drawn. Like-named read-outs stand apart in the source and are kept apart here.

How the values were obtained:
Varroa destructor = details: for mortality for Varroa mites: after 24 hours
Method: About 300 bees (Apis mellifera) infected with Varroa destructor were taken from a hive superinfected with Varroa destructor. The bees were then placed in a device allowing to detach Varroa mites attached to the bees (device described in Community model n° 003419415-0001) filled with icing sugar. The device was stirred for 2 minutes to sample the Varroa mites attached to the bees. The icing sugar allows to interfere between the bee and the Varroa mite that was attached thereto. Varroa mites were harvested with icing sugar because they pass through the holes in the device, unlike bees. The Varroa mites were then separated from the icing sugar.
The Varroa mites thus recovered were dispatched in boxes (10 Varroa mites per box).
The bees were then dispatched in the boxes (10 per box).
The bees were then put to sleep for a few minutes using CO2 (flow of 3 liters for 20 seconds) in order to deposit 1 μL of compound to be tested on their thorax using a pipette. It should be noted that the bees which received romifidine hydrochloride at a concentration of 10 μg/μL received 2 μL of product. The bees were unconscious for the time the compound to be tested was deposited, that is to say around three minutes, then they woke up.
After thoracic deposition of the compound to be tested, the 10 bees from the same box were transferred to a box containing the 10 Varroa mites (cf. “Preparation of Varroa mites” above). Liquid sugar was left in each of the boxes to feed the bees during the observations. The series of boxes was then placed in an oven at […] with a humidity of 50% in order to approximate hive conditions as closely as possible.
The mortality of Varroa mites and bees was then monitored 5 minutes, 2 hours, 4 hours and 24 hours after application of the compound to be tested to the bees. Dead Varroa mites correspond to Varroa mites detached from the bees. Dead bees correspond to bees which no longer move and which are often placed on their thorax.
The following compositions were applied to the thorax of the bees: • Solvent, • Amitraz at 1 μg/μL in acetone, • Clonidine hydrochloride at 100 μg/μL, 10 μg/μL, 1 μg/μL and 0.1 μg/μL in methanol, • Detomidine hydrochloride monohydrate at 1 μg/μL in methanol, • Dexmedetomidine hydrochloride at 100 μg/μL, 10 μg/μL, 1 μg/μL and 0.1 μg/μL in methanol, • Romifidine hydrochloride at 10 μg/μL and at 5 μg/μL in methanol, • Tizanidine hydrochloride at 1 μg/μL in methanol, • Medetomidine hydrochloride at 0.1 μg/μL in ethanol, • Levomedetomidine hydrochloride at 100 μg/μL, 10 μg/μL, 1 μg/μL and 0.1 μg/μL in methanol, • Octopamine at 1 μg/μL in ethanol. Results

Rhipicephalus sanguineus = experiment: Topical acaricidal test on brown dog ticks; assay type: in vivo; details: 168 h, 0.5 μl per tick, after 7 days of treatment; for mortality at 1 ppm: 1 ppm topical; for mortality at 10 ppm: 10 ppm topical; for mortality at 100 ppm: 100 ppm topical; for mortality at 1000 ppm: 1000 ppm topical
Method: Brown dog ticks, Rhipicephalus sanguineus, of 2nd stage, from a single cohort were used.
Three (3) compounds were tested, as well as a reference compound (Amitraze). For each compound tested and Amitraz, four doses (1000, 100, 10 and 1 ppm) were applied to the ticks topically. A negative control (acetone) and an untreated group were included for comparison. The experiments were carried out in triplicate.
Ten ticks were placed in a clear plastic container, measuring approximately 120 mm in diameter and 45 mm in height. The ticks were then anesthetized by direct exposure (for 10 seconds) to carbon dioxide. The treatments were then applied to the back (scutum) of each tick, using a Hamilton syringe, up to 0.5 μl of treatment per tick (1 application).
Cotton soaked in water was placed in each container to provide humidity throughout the experiment. The container was also vented throughout the experiment with a tube to introduce air into each container. The containers were maintained at a temperature of 23±3° C. Live, shocked and dead tick counts were taken daily after treatment for 7 days.
The averages in percentage of each evaluation category (healthy, knocked down and dead) were calculated, as well as the standard error. An analysis of variance (ANOVA) was performed using Minitab software, 16th edition.

`Cc1cccc(C(C)c2cnc[nH]2)c1C` (racemic) [Medetomidine hydrochloride] was tested, and the “Varroacid effect (in words)” value (Varroa destructor; 0.1 μg/μL in ethanol) was “very effective”, the mortality at 1 ppm (Rhipicephalus sanguineus) was 26.7% and the mortality at 10 ppm (Rhipicephalus sanguineus) was 66.7%. It also gave a mortality at 100 ppm (Rhipicephalus sanguineus) of 93.3% and a mortality at 1000 ppm (Rhipicephalus sanguineus) of 100%.

In the case of `Cc1ccc(/N=C/N(C)/C=N/c2ccc(C)cc2C)c(C)c1` [Amitraz], the “Varroa mites killed / mortality for Varroa mites” value (Varroa destructor; 1 μg/μL, 1 μL on bee thorax, time not stated (monitored up to 24 hours)) is reported as 100%, the mortality at 1 ppm (Rhipicephalus sanguineus) is reported as 30% and the mortality at 10 ppm (Rhipicephalus sanguineus) is reported as 46.7%. The mortality at 100 ppm (Rhipicephalus sanguineus) was 96.7% and the mortality at 1000 ppm (Rhipicephalus sanguineus) was 100%.

Molecule `Cc1cccc(Cc2cnc[nH]2)c1C` [Detomidine hydrochloride, 4-[(2,3-dimethylphenyl)-methyl]-3H-imidazole] has a mortality at 1 ppm (Rhipicephalus sanguineus) of 26.7%, a mortality at 10 ppm (Rhipicephalus sanguineus) of 23.3% and a mortality at 100 ppm (Rhipicephalus sanguineus) of 50%. It also gave a mortality at 1000 ppm (Rhipicephalus sanguineus) of 100%.

For `Cc1cccc([C@H](C)c2c[nH]cn2)c1C` [Dexmedetomidine hydrochloride, (S)-4-[1-(2,3-dimethylphenyl)-ethyl]-1H-imidazole], the “mortality for Varroa mites” value (Varroa destructor; 0.1 μg/μL) was 100%, the “mortality for Varroa mites” value (Varroa destructor; 10 μg/μL) was 100% and the mortality at 1 ppm (Rhipicephalus sanguineus) was 20%. For the same molecule, the mortality at 10 ppm (Rhipicephalus sanguineus) was 93.3%, the mortality at 100 ppm (Rhipicephalus sanguineus) was 100% and the mortality at 1000 ppm (Rhipicephalus sanguineus) was 100%.
